Laboratory results as given in PubChem BioAssay (NCI).
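Protocol summary: plate cells (96-well), add compound at 5 concentrations, incubate 48 h, interpolate endpoints linearly. TGI: total growth inhibition.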

Columns and labels:
Assay in all cases: NCI anticancer screen, dose series, 48 h
A498 renal = test system: A498 renal
CCRF-CEM leukemia = test system: CCRF-CEM leukemia
HCC-2998 colon = test system: HCC-2998 colon
NCI-H460 lung = test system: NCI-H460 lung
NCI-H522 lung = test system: NCI-H522 lung
NCI/ADR-RES ovarian = test system: NCI/ADR-RES ovarian
RPMI-8226 leukemia = test system: RPMI-8226 leukemia
SF-268 CNS = test system: SF-268 CNS
SF-539 CNS = test system: SF-539 CNS
SK-MEL-2 melanoma = test system: SK-MEL-2 melanoma
SK-OV-3 ovarian = test system: SK-OV-3 ovarian
HOP-62 NSCLC = test system: HOP-62 NSCLC
SR leukemia = test system: SR leukemia

Measured: TGI

O=C(/C=C/c1c(O)c2ccccc2[nH]c1=O)CC(=O)C(=O)Nc1cccc(O)c1
not listed: HOP-62 NSCLC | SR leukemia
> 100 µM: all other assays above

CC(C)(C)c1cc(N=NC(=S)NCc2ccccc2)cc(C(C)(C)C)c1O
not listed: NCI-H522 lung | NCI/ADR-RES ovarian | SK-OV-3 ovarian
> 100 µM: all other assays above

c1ccc2c(NCCCCCCCCNc3cccc4ccccc34)cccc2c1
> 10 µM: RPMI-8226 leukemia
42.5 µM: CCRF-CEM leukemia
36 µM: NCI-H522 lung
60.5 µM: NCI-H460 lung
72.2 µM: SF-539 CNS
not listed: NCI/ADR-RES ovarian | SR leukemia
> 100 µM: all other assays above

COc1ccc2c(c1)CC1NC2Cc2ccccc21 (stereo not drawn)
not listed: NCI/ADR-RES ovarian | SR leukemia
> 100 µM: all other assays above

O=C(/C=C(\O)C(=O)O)/C=C(\O)c1ccccc1Cl
not listed: NCI/ADR-RES ovarian
> 100 µM: all other assays above

CC1C(c2ccccc2)=CCON1c1ccccc1 (stereo not drawn)
not listed: A498 renal | NCI/ADR-RES ovarian
> 100 µM: all other assays above

CC1=C(N(C)C)C(=O)c2nc3n(c2C1=O)CCC3OC(N)=O (stereo not drawn)
42.8 µM: CCRF-CEM leukemia
> 100 µM: RPMI-8226 leukemia | SR leukemia
30.4 µM: NCI-H460 lung
26.6 µM: A498 renal
34.7 µM: HCC-2998 colon
34.6 µM: SF-268 CNS
31.6 µM: HOP-62 NSCLC
28.8 µM: NCI-H522 lung
31.8 µM: SF-539 CNS
29.5 µM: SK-OV-3 ovarian
29.8 µM: SK-MEL-2 melanoma

NC(=S)Nc1nnc(-c2ccc(-c3nnc(NC(N)=S)o3)cc2)o1
not listed: NCI/ADR-RES ovarian | SR leukemia
> 100 µM: all other assays above

CC[N+](CC)(CC)Cc1cn(S(=O)(=O)c2ccccc2)c2ccccc12
not listed: A498 renal | NCI/ADR-RES ovarian | SK-OV-3 ovarian
> 100 µM: all other assays above

BrC12C3C4C5C(C(C43)C13OCCO3)C52 (stereo not drawn)
not listed: NCI/ADR-RES ovarian | SR leukemia
> 100 µM: all other assays above

CCOC(=O)C1=C(C)C2C3C(=O)NC(=O)C3C1(C)C1C(=O)NC(=O)C21 (stereo not drawn)
not listed: NCI-H522 lung | NCI/ADR-RES ovarian | SR leukemia
> 100 µM: all other assays above

Clc1ccc2c(Cl)ncnc2c1I
56.6 µM: NCI-H522 lung
not listed: A498 renal | CCRF-CEM leukemia | NCI/ADR-RES ovarian | SF-539 CNS
> 100 µM: all other assays above

Cc1c(C(=O)Nc2ccc(Cl)c(C(F)(F)F)c2)oc2cc(O)ccc2/c1=N\NC(N)=S
not listed: NCI/ADR-RES ovarian
> 100 µM: all other assays above

CN(C)c1cccc(-c2cc(=O)c3cc4c(cc3[nH]2)OCO4)c1
31.4 µM: SF-268 CNS
4.58 µM: A498 renal
0.567 µM: HCC-2998 colon
0.932 µM: SK-OV-3 ovarian
> 73.9 µM: HOP-62 NSCLC
0.756 µM: SF-539 CNS
0.987 µM: NCI-H460 lung
0.275 µM: NCI-H522 lung
not listed: NCI/ADR-RES ovarian
> 100 µM: all other assays above

Cc1cccc(NC(=O)CSc2nnc(Cc3ccccc3)o2)c1
not listed: NCI/ADR-RES ovarian | RPMI-8226 leukemia | SR leukemia
> 100 µM: all other assays above

C1=Cc2nc1c(-c1ccccc1)c1ccc([n-]1)c(-c1ccccc1)c1nc(c(-c3ccccc3)c3ccc([n-]3)c2-c2ccccc2)C=C1.[Zn+2]
not listed: A498 renal | NCI/ADR-RES ovarian | SR leukemia
> 100 µM: all other assays above
